Measurements: PubChem BioAssay (NCI)
“And” between values parts separate entries of the source, which are not always exact repeats. Identical values can stand only once.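 Compound exposure: 48 hours, 5 concentrations, 96-well plates. Abbreviation: GI50, concentration required for 50% inhibition of growth. At the TGI there is no net growth.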

What was measured:
Assay in all cases: NCI-60 cell line screen, 48 h
CCRF-CEM leukemia = system: CCRF-CEM leukemia
HOP-92 NSCLC = system: HOP-92 NSCLC
K-562 leukemia = system: K-562 leukemia
KM12 colon = system: KM12 colon
LOX IMVI melanoma = system: LOX IMVI melanoma
MALME-3M melanoma = system: MALME-3M melanoma
NCI-H23 lung = system: NCI-H23 lung
NCI-H460 lung = system: NCI-H460 lung
SW-620 colon = system: SW-620 colon
U251 CNS = system: U251 CNS

| SMILES | TGI (CCRF-CEM leukemia) | TGI (HOP-92 NSCLC) | TGI (K-562 leukemia) | TGI (KM12 colon) | TGI (LOX IMVI melanoma) | TGI (MALME-3M melanoma) | TGI (NCI-H23 lung) | TGI (NCI-H460 lung) | TGI (SW-620 colon) | TGI (U251 CNS) | GI50 (CCRF-CEM leukemia) | GI50 (HOP-92 NSCLC) | GI50 (K-562 leukemia) | GI50 (KM12 colon) | GI50 (LOX IMVI melanoma) | GI50 (MALME-3M melanoma) | GI50 (NCI-H23 lung) | GI50 (NCI-H460 lung) | GI50 (SW-620 colon) | GI50 (U251 CNS) |
| --- | --- | --- | --- | --- | --- | --- | --- | --- | --- | --- | --- | --- | --- | --- | --- | --- | --- | --- | --- | --- |
| N#CC(C(=O)C(=O)NCCCNC(=O)C(=O)C(C#N)c1ccccc1)c1ccccc1 (stereo not given) | > 100 µM | > 100 µM | > 100 µM | > 100 µM | > 100 µM | > 100 µM | > 100 µM | > 100 µM | > 100 µM | > 100 µM |  |  |  |  |  |  |  |  |  |  |
| CSc1nc2c(nc(N)n2C2OCC(O)C(O)C2O)c(=O)n1C (stereo not given) | > 100 µM | > 100 µM | > 100 µM | > 100 µM | > 100 µM | > 100 µM | > 100 µM | > 100 µM | > 100 µM | > 100 µM |  |  |  |  |  |  |  |  |  |  |
| OCc1ccc(-c2nn(Cc3ccccc3)c3ccccc23)o1 | > 95.9 µM | 38.9 µM and 38.1 µM | 63.2 µM and > 42.3 µM | 35.2 µM and 34.5 µM | 29.8 µM and 27.7 µM | 76.3 µM and 55.5 µM | 58.8 µM and 50.8 µM | 29.4 µM and 28.5 µM | 51.9 µM and 32.8 µM | 28.5 µM and > 47.6 µM | 24.3 µM and 25.5 µM | 10.4 µM and 12.2 µM | 10.1 µM and 7.41 µM | 16.9 µM and 16.6 µM | 14.6 µM | 24.3 µM and 21.1 µM | 19.2 µM and 20.9 µM | 12.8 µM and 12.2 µM | 13.3 µM and 12.3 µM | 8.07 µM and 12.4 µM |
| N#C/C(=C\c1cccc(O)c1)C(N)=O | > 100 µM | > 100 µM | > 100 µM | > 100 µM | > 100 µM | > 100 µM | > 100 µM | > 100 µM | > 100 µM | > 100 µM |  |  |  |  |  |  |  |  |  |  |
| O=C1C(Cl)=C(Nc2cccc(O)c2)C(=O)N1c1cc(Cl)c(Cl)cc1Cl | > 100 µM | 26.2 µM | 40.3 µM | 34.3 µM | 28 µM | 23.4 µM | 48.3 µM | 38.4 µM | 28.9 µM | 27.3 µM | 0.45 µM | 12.5 µM | 17.4 µM | 16.5 µM | 13 µM | 7.29 µM | 22.3 µM | 18 µM | 15.2 µM | 13.7 µM |
| CC1S(=O)(=O)OCCOS1(=O)=O | > 100 µM | > 100 µM | > 100 µM | > 100 µM | > 100 µM | > 100 µM | > 100 µM | > 100 µM | > 100 µM | > 100 µM |  |  |  |  |  |  |  |  |  |  |
| COC(=O)CNC(=O)[C@@H](OC)[C@@H]1Cc2cc3cc(OC4CC(OC5CC(O)C(O)C(C)O5)C(O)C(C)O4)c(C)c(O)c3c(O)c2C(=O)[C@H]1OC1CC(OC2CC(OC3CC(C)(O)C(O)C(C)O3)C(O)C(C)O2)C(O)C(C)O1 (stereo not given in full) | > 50 µM | 4.59 µM | > 50 µM | > 50 µM | > 50 µM | 1.03 µM | > 50 µM | > 50 µM | > 50 µM | > 50 µM | 0.186 µM | 0.184 µM | 0.192 µM | 0.127 µM | 0.0592 µM | 0.123 µM | 0.15 µM | 0.097 µM | 0.184 µM | 0.0806 µM |
| CCCCN(Cc1ccc(F)cc1)c1ccc(CO)c(Cl)c1 | 38.1 µM | 19.5 µM | 29.6 µM | 33 µM | 31.5 µM | 33.8 µM | 26.3 µM | 13.4 µM | 20.7 µM | 18.9 µM | 15.8 µM | 3.32 µM | 6.76 µM | 17.5 µM | 16.3 µM | 17.7 µM | 11.8 µM | 2.46 µM | 6.11 µM | 4.57 µM |
| COc1cccc(C(=O)C2C(=O)N(C)CCc3ccccc32)c1OC (stereo not given) | > 100 µM | > 100 µM | > 100 µM | > 100 µM | > 100 µM | > 100 µM | > 100 µM | > 100 µM | > 100 µM | > 100 µM |  |  |  |  |  |  |  |  |  |  |
| C=C1C(=O)O[C@H]2[C@H]1CC/C(COC(=O)N1CCC[C@H]1C(=O)Nc1ccc(OC)c(C(N)=O)c1O)=C\CC[C@@]1(C)O[C@@H]21 | 5.95 µM | 3.32 µM | 10.2 µM | 20 µM | 3.23 µM | 6.54 µM | 22.6 µM | 29 µM | 4.01 µM | 20.9 µM | 1.65 µM | 1.23 µM | 2.43 µM | 5.53 µM | 1.39 µM | 2.42 µM | 5.44 µM | 11.4 µM | 1.64 µM | 6.76 µM |
| Cn1ccnc1C(=O)/C=C/c1ccc(CC(=O)Nc2ccccc2)cc1 | > 25 µM | > 25 µM | > 25 µM | 8.17 µM | 4.27 µM | 22 µM | 11.3 µM | 9.52 µM | 8.81 µM | 5.27 µM | 2.37 µM | 6.63 µM | 1.07 µM | 3.39 µM | 1.03 µM | 5.93 µM | 3.24 µM | 2.32 µM | 2.75 µM | 1.57 µM |
